Test system: P23H opsin
Test: Rhodopsin purification and regeneration: pigment formation from P23H opsin after compound treatment of P23H cells
Conditions: for Fold Increase Over Control (480-500 nm absorbance): P23H cells treated 48 hours, regenerated with 9-cis-retinal (20 μM), fold increase over the DMSO control

SMILES | Fold Increase Over Control (480-500 nm absorbance) (10 μM) [fold] | Fold Increase Over Control (480-500 nm absorbance) (20 μM) [fold] | regeneration of 500 nm absorbing pigment upon treatment with retinal (FIG. 1) (P23H opsin treated with 20 μM during mutant protein production, relative to vehicle (DMSO) alone)
CC1=C(C(O)c2ccc3c(c2)CCN(C(N)=O)C3)C(C)(C)CCC1 (centres unmarked) [Compound 2, 6-(hydroxy(2,6,6-trimethylcyclohex-1-enyl)methyl)-3,4-dihydroisoquinoline-2(1H)-carboxamide] | 2.5 | – | –
C[C@H]1CCCC(C)(C)[C@@H]1[C@H](O)c1ccc2c(c1)CCN(C(N)=O)C2 [Compound 3, 6-((S)-hydroxy((1R,6S)-2,2,6-trimethylcyclohexyl)methyl)-3,4-dihydroisoquinoline-2(1H)-carboxamide] | 1.5 | – | –
C[C@H]1CCCC(C)(C)[C@@H]1[C@@H](O)c1ccc2c(c1)CCN(C(N)=O)C2 [Compound 5, 6-((R)-hydroxy((1R,6S)-2,2,6-trimethylcyclohexyl)methyl)-3,4-dihydroisoquinoline-2(1H)-carboxamide] | 1.9 | – | –
CC(=O)/C=C/C1=C(C)CCCC1(C)C [β-ionone, reference compound] | – | 2.4 | increase in regeneration of 500 nm absorbing pigment

Source: patent publication US9757370B2, “Opsin-binding ligands, compositions and methods of use” (priority 2011, dated 2017)
